Experiment [1] deals with T1, Adenosine receptor A1 (Homo sapiens, UniProt P30542).
T1 sequence (P30542 whole entry): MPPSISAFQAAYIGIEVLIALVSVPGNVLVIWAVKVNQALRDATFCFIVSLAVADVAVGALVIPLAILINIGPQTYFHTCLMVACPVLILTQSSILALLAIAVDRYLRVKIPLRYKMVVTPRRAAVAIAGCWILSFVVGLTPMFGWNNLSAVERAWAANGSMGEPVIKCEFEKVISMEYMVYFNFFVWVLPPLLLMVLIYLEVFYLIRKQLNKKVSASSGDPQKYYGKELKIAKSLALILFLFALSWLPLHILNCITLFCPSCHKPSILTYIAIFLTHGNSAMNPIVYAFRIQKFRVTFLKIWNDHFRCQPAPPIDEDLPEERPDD

Experiment [2] addresses T2, Alpha-2C adrenergic receptor (Homo sapiens, UniProt P18825).
T2 sequence (P18825 whole entry): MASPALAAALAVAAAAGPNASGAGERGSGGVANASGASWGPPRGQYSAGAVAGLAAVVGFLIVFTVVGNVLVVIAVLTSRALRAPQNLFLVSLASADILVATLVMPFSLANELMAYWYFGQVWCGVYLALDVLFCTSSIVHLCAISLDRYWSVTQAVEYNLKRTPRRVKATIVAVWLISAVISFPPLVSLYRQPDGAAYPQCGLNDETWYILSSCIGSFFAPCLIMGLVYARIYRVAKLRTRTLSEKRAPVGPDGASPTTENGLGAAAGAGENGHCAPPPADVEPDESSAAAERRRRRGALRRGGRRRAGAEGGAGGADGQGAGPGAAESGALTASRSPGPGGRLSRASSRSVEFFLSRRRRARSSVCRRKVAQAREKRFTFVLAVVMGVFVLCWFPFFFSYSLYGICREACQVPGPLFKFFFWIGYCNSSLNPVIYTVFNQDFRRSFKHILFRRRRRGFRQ
The class given is functional.

Experiment [3] has as its target Neuronal acetylcholine receptor subunit alpha-4 (Homo sapiens, UniProt P43681).
The target in experiment [4] is T3, Cannabinoid receptor 1 (Homo sapiens, UniProt P21554). The class given is functional, cell-based.
For experiment [5], the target named is T3, Cannabinoid receptor 1.
Experiment [6] concerns the target T4, Estrogen receptor (Homo sapiens, UniProt P03372).
T4 sequence (P03372 whole entry): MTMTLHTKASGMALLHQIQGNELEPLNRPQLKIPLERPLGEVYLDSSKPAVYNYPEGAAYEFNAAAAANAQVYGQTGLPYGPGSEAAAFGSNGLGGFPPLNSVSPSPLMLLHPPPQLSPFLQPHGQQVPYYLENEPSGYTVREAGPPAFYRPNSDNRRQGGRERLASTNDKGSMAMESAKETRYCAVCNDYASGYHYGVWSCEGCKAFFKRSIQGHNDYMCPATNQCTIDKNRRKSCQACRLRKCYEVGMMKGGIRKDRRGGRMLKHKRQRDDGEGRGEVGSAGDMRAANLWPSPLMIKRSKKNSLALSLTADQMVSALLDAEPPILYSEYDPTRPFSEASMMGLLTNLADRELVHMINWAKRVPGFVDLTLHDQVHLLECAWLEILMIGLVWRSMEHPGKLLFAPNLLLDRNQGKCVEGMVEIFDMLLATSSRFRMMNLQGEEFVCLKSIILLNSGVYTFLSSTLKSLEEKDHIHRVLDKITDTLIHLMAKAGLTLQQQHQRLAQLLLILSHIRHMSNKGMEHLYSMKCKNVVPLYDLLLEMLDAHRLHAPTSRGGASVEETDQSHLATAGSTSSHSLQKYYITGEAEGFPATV

In experiment [7] the target is Gamma-aminobutyric acid receptor subunit alpha-1 (Rattus norvegicus, UniProt P62813). The class given is functional.
The target of experiment [8] is Histamine H2 receptor (Homo sapiens, UniProt P25021). The class given is functional, cell-based.
Experiment [9] has as its target T5, 5-hydroxytryptamine receptor 3A (Homo sapiens, UniProt P46098).
T5 sequence (P46098 whole entry): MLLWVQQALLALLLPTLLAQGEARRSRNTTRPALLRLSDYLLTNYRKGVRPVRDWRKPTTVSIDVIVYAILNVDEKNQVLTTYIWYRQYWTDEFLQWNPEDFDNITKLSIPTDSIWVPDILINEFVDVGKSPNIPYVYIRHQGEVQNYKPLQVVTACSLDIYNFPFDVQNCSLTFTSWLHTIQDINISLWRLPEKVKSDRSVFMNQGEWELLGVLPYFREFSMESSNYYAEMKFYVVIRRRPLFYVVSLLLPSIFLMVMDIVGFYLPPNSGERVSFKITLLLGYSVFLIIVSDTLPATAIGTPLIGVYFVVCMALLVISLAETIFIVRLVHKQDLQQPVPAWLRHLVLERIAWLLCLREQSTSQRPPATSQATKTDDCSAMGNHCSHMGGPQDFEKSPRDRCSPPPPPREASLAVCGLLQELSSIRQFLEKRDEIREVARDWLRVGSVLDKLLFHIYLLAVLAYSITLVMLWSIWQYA
It counts as functional.

For experiment [10], the target named is Kappa-type opioid receptor (Homo sapiens, UniProt P41145).
Experiment [11] has as its target Histamine H3 receptor (Homo sapiens, UniProt Q9Y5N1).
The target of experiment [12] is T6, Endothelin-1 receptor (Homo sapiens, UniProt P25101).
T6 sequence (P25101 whole entry): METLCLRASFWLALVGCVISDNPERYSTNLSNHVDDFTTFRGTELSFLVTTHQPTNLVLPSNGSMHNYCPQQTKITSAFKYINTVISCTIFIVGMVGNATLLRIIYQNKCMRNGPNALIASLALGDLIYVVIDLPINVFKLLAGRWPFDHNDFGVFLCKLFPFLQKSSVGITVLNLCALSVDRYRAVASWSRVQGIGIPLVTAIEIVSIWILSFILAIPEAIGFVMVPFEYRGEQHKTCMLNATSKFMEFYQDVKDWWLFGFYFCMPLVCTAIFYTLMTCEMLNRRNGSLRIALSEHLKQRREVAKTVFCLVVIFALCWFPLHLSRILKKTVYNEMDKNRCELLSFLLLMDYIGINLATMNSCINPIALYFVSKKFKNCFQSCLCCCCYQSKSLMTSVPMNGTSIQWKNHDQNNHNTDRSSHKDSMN

Where only a bound is given, the exact number is not on record here.
Further: assay procedure not described here.

Sequence of Histamine H2 receptor (P25021 whole entry): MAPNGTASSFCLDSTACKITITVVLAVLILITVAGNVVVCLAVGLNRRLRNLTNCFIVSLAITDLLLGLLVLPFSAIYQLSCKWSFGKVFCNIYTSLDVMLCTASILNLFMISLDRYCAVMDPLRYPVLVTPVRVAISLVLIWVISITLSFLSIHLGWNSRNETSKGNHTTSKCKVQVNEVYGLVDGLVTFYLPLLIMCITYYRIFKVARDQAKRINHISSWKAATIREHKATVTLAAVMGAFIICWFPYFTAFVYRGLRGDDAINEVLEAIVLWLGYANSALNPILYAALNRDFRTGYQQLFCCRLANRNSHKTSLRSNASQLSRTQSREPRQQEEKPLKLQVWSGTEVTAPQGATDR
Sequence of Neuronal acetylcholine receptor subunit alpha-4 (P43681 whole entry): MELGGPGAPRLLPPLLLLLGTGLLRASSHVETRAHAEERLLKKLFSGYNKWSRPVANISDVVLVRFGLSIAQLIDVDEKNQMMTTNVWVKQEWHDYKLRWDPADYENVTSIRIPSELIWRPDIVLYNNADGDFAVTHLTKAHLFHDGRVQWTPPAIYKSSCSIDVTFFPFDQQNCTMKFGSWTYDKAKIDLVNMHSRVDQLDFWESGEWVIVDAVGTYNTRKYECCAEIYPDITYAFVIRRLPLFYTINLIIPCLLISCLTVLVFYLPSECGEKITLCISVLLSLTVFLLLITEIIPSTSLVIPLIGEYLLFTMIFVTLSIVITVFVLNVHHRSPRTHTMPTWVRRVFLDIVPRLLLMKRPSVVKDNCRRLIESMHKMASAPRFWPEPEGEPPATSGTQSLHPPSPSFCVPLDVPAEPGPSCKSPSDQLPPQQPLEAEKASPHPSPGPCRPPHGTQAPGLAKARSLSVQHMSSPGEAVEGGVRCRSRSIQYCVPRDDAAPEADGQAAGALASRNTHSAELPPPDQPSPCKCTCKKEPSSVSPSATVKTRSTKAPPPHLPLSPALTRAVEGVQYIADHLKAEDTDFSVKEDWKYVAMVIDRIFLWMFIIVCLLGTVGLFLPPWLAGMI
Sequence of Histamine H3 receptor (Q9Y5N1 whole entry): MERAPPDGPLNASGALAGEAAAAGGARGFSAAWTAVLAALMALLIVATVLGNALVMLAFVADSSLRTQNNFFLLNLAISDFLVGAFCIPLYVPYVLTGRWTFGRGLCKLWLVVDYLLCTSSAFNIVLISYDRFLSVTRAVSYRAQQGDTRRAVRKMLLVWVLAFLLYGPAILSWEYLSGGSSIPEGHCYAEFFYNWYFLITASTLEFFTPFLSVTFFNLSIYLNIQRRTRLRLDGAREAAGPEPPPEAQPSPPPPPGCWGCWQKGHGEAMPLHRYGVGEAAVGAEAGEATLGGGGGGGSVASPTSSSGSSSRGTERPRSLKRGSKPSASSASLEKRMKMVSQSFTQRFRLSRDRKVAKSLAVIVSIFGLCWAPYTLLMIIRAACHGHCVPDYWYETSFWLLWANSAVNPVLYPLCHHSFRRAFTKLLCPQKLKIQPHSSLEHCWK
Sequence of Gamma-aminobutyric acid receptor subunit alpha-1 (P62813 whole entry): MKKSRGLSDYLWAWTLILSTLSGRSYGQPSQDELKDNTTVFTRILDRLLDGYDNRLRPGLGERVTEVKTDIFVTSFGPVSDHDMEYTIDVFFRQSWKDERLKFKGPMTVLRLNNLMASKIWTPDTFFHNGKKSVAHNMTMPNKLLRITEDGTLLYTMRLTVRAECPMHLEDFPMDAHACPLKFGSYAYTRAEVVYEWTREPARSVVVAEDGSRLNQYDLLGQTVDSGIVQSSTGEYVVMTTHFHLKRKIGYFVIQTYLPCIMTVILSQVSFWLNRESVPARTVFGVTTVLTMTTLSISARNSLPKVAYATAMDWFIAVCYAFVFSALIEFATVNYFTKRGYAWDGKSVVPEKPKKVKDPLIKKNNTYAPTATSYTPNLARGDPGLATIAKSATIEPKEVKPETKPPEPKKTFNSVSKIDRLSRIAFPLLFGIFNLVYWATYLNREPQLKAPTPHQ
Sequence of Kappa-type opioid receptor (P41145 whole entry): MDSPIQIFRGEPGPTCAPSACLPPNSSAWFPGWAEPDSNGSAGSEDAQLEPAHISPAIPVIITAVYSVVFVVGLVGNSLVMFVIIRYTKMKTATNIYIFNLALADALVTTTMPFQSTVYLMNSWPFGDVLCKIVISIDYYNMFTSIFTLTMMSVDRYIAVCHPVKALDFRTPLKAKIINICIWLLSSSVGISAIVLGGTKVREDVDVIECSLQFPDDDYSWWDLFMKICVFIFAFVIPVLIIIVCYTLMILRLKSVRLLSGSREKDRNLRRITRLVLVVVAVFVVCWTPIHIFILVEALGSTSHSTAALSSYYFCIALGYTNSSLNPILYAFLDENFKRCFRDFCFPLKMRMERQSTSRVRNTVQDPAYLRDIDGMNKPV
T3 sequence (P21554 whole entry): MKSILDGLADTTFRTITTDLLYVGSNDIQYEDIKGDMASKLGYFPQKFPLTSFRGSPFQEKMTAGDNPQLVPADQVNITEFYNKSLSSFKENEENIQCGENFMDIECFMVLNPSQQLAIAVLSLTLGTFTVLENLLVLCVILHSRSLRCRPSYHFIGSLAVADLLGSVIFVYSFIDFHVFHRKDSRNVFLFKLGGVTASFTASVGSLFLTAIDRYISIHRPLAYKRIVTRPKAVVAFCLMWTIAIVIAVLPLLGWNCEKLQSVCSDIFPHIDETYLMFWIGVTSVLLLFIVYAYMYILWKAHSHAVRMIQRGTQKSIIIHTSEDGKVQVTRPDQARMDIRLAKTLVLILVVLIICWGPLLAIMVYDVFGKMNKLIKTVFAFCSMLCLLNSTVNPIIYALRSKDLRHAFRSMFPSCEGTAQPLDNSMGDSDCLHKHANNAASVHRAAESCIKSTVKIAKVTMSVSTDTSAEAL

In the case of `CC(CN(C)C)C(C)(O)Cc1ccc(Cl)cc1` (centres undefined) [CLOBUTINOL], the AC50 was over 30 µM in [1]; over 10 µM in experiment [2]; over 10 µM in experiment [3]; over 30 µM in [4]; over 10 µM in experiment [5]; over 30 µM in [6]. The AC50 is over 10 µM in experiment [7]; over 10 µM in experiment [8]; over 30 µM in [9]; over 10 µM in experiment [10]; over 10 µM in experiment [11].
Consider `CCc1nc(N)nc(N)c1-c1ccc(Cl)cc1` [PYRIMETHAMINE], for which the AC50 in experiment [1] is over 10 µM; in experiment [2] it was over 30 µM; in experiment [3], over 10 µM; in [4], over 30 µM; in experiment [5], over 10 µM; in [6], over 10 µM. Moreover, the AC50 was over 10 µM in [7], over 30 µM in experiment [8], over 30 µM in experiment [9] and over 30 µM in [10].
`CCOC(=O)C(C)(C)Oc1ccc(Cl)cc1` [CLOFIBRATE]: the AC50 in experiment [1] is over 30 µM; in experiment [2], over 10 µM; in experiment [3] it was over 10 µM; in [4], over 30 µM; in experiment [5] it was over 10 µM; in [12] it was over 30 µM. The AC50 is over 30 µM in experiment [6]; over 10 µM in experiment [7]; over 10 µM in experiment [8]; over 30 µM in experiment [9]; over 10 µM in experiment [10]; over 10 µM in experiment [11].
In the case of `NC(=O)NC(=O)Cc1ccccc1` [PHENACEMIDE], the AC50 in experiment [1], in [2], in experiment [3], in [5], in experiment [6] and in experiment [7] was over 10 µM each time. Besides, the AC50 in experiment [8] was over 10 µM; in experiment [9], over 30 µM; in experiment [10], over 10 µM.
Regarding `Cc1cc(=O)n(-c2ccccc2)n1C` [ANTIPYRINE], the AC50 in experiment [1] was over 30 µM; in [2] it was over 10 µM; in experiment [3] it was over 10 µM; in experiment [4], over 30 µM; in [5] it was over 10 µM; in experiment [6] it was over 30 µM. Further, the AC50 in [7] is over 10 µM; in experiment [8], over 10 µM; in experiment [9] it was over 30 µM; in [10], over 10 µM; in [11] it was over 10 µM.
`O=C1Nc2ccc(Cl)cc2C(c2ccccc2Cl)=NC1O` (centres undefined) [LORAZEPAM]: the AC50 was over 30 µM in experiment [1]; over 10 µM in experiment [2]; over 10 µM in experiment [3]; over 30 µM in [4]; over 10 µM in [5]; over 30 µM in experiment [12]. Further, the AC50 is over 30 µM in experiment [6]; 0.0074 µM in [7]; over 10 µM in experiment [8]; over 30 µM in [9]; over 10 µM in [10]; over 10 µM in experiment [11].
In the case of `CCOC(=O)c1ncn2c1CN(C)C(=O)c1cc(F)ccc1-2` [FLUMAZENIL], the AC50 in experiment [1], in [2], in experiment [3], in experiment [5], in experiment [6] and in experiment [8] was over 30 µM throughout. Besides, the AC50 in experiment [9], in [10] and in [11] was over 30 µM throughout.
With `Cc1ccnc2c1NC(=O)c1cccnc1N2C1CC1` [NEVIRAPINE], the AC50 was 31.2 µM in [1]; over 10 µM in experiment [2]; over 30 µM in [4]; over 10 µM in experiment [5]; over 30 µM in experiment [12]; over 10 µM in experiment [7]. For the same molecule, the AC50 in experiment [8], in experiment [9], in experiment [10] and in [11] was over 10 µM throughout.
For the molecule `O=C(O)CCNC(=O)c1ccc(/N=N/c2ccc(O)c(C(=O)O)c2)cc1` [BALSALAZIDE], the AC50 in experiment [1], in [2], in experiment [3], in [5], in experiment [6] and in [7] was over 30 µM in each case. Besides, the AC50 was over 30 µM in experiment [8], 15 µM in experiment [9], over 30 µM in experiment [10] and 35.5 µM in [11].
For the molecule `Fc1ccc([C@@H]2CCNC[C@H]2COc2ccc3c(c2)OCO3)cc1` [PAROXETINE], the AC50 in experiment [1] was over 30 µM; in experiment [2], 7.8 µM; in [3], over 10 µM; in [5] it was 2.72 µM; in [12], over 30 µM; in experiment [6], over 30 µM. The AC50 in [7], in experiment [9] and in experiment [11] was over 10 µM in each case.
`CC(c1cc2ccccc2s1)N(O)C(N)=O` (centres undefined) [ZILEUTON]: the AC50 in [1] is over 10 µM; in experiment [2], over 10 µM; in experiment [3] it was over 10 µM; in experiment [4], over 30 µM; in [5], over 10 µM; in [6], over 30 µM. Moreover, the AC50 in experiment [7] was over 10 µM; in experiment [8], over 10 µM; in experiment [9], over 30 µM; in experiment [10], over 10 µM; in experiment [11], over 10 µM.
On to `COc1ccc(C2C(=O)c3ccccc3C2=O)cc1` [ANISINDIONE], for which the AC50 in [1] is over 10 µM; in [2], over 10 µM; in experiment [3], over 10 µM; in [5] it was over 10 µM; in experiment [6], over 30 µM; in experiment [7], over 10 µM. Besides, the AC50 was over 30 µM in [8], over 30 µM in experiment [9] and over 10 µM in experiment [10].
`COc1cc(N)c(Cl)cc1C(=O)NC1CCN(CCCOc2ccc(F)cc2)CC1OC` (centres undefined) [CISAPRIDE]: the AC50 was over 30 µM in [1]; over 10 µM in [3]; over 30 µM in experiment [4]; over 10 µM in experiment [5]; over 30 µM in [12]; over 30 µM in [6]. In addition, the AC50 in experiment [7] is over 10 µM; in experiment [8] it was over 10 µM; in [9], over 30 µM; in experiment [10] it was 16.7 µM; in experiment [11], over 10 µM.

Values taken from ChEMBL document CHEMBL5291721, “A preclinical secondary pharmacology resource illuminates target-adverse drug reaction associations of marketed drugs” (Nat Commun, 2023).
